Data as given in paper PMC8443048 (PLoS Pathogens, 2021).

Target: T1, isocitrate lyase (ICL) (Brucella abortus, UniProt Q2YQA0)
T1 construct: gene BAB1_1631
Details: covalent; adduct with Cys185; active site

T1 sequence (Q2YQA0 1-429): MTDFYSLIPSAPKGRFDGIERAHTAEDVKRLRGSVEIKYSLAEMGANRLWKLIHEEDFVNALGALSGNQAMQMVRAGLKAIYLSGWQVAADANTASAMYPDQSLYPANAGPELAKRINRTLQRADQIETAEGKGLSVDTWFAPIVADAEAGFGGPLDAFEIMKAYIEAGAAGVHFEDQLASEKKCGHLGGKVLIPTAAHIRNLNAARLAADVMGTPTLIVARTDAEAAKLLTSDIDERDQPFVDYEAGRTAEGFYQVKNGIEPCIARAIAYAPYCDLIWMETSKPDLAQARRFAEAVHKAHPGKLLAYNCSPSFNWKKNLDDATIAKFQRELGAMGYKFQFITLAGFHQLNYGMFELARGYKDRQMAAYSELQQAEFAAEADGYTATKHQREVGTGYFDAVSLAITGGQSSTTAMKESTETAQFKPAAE

Q: `C=C(CC(=O)O)C(=O)O` [itaconate] was tested. Which “X-ray crystallography of the complex, 1.8 Å” value did it give?
A: unambiguously shows a covalent adduct between itaconate and Cys185 in B. abortus isocitrate lyase
